Test results from PMC12951568, “Identifying Structural Factors Governing the Photodynamic Activity of Phthalocyanines” (Journal of Medicinal Chemistry, 2026).
Like-named read-outs stand apart in the source and are kept apart here.

Key:
[1] = Absorption and fluorescence emission spectra in DMF; assay type: physicochemical; conditions: in DMF
Description: (§1) An absorption spectrum of 2.475 mL of solvent (water, DMF, or PBS) was taken (i.e., absorption spectrum of baseline); then, 25 μL of stock solution was added to reach the final concentration of 1 μM in the cuvette, and the absorption and emission spectra were taken. Baseline of the solvent was subtracted from the obtained absorption spectrum to get the final absorption spectrum of the sample.

[2] = determined for nonionized analogues containing free carboxylic acid; ref number not given (footnote b); cited from earlier work
[3] = Fluorescence quantum yield, comparative method; assay type: physicochemical; conditions: in DMF; ZnPc as reference
Method in brief: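 ΦF determined by the comparative method against ZnPc (ΦF 0.32 in THF), using integrated emission area, absorbance at the excitation wavelength and solvent refractive index. Q-band absorbance kept below 0.05; estimated error ± 15%.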

[4] = system: HeLa (human cervical carcinoma); conditions: ref number not given, cited from earlier work
[5] = Aggregation / monomerization in aqueous media (spectra in water and PBS); assay type: physicochemical; conditions: 1 μM
Description: as §1

[6] = system: MCF-7 (human breast adenocarcinoma); parameters: method as in number not printed in Table 2; conditions: 12 h incubation, Xe-lamp 15 min, λ > 570 nm, 11.2 J/cm^2; mean ± SD; determined previously under the same conditions at the same workplace and published; ref number not given; cited from earlier work
[7] = determined for nonionized analogues containing free carboxylic acid; ref number not given (footnote b); cited from earlier work; remark: listed apart in the source
[8] = Log P, partition between n-octanol and PBS; assay type: physicochemical; conditions: partition coefficient between 1-octanol and PBS
Method in brief: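 Sample from 100 μM stock added to equal volumes of n-octanol and PBS, vortexed 5 min at rt, centrifuged. Each layer diluted into DMF and emission spectra recorded; log P taken as log of octanol/PBS integrated fluorescence ratio, mean of triplicates.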

[9] = target: bovine serum albumin (BSA) (Bos taurus, UniProt P02769); assay: Interaction with bovine serum albumin (absorption and emission spectra in PBS); assay type: binding; conditions: 1 μM Pc in PBS, BSA 17.5, 35 and 100 μM
[10] = Quantum yield of singlet oxygen production, comparative method with DPBF scavenger; assay type: physicochemical; conditions: in DMF, ZnPc as reference
Method in brief: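 Dye added from 100 μM DMF stock (or DMF/water, water); irradiated under stirring with xenon lamp through water filter and OG530 cut-off (>523 nm). DPBF decay followed at 415 nm; ΦΔ from ln(A0/At) slopes versus reference, normalised to absorbed light summed over 523–850 nm; triplicate means, ±10% error.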

[11] = system: MCF-7 (human breast adenocarcinoma); assay: Photodynamic activity (phototoxicity, neutral red uptake) on MCF-7; assay type: cell-based; conditions: 12 h incubation, Xe-lamp 15 min, λ > 570 nm, 11.2 J/cm^2; mean ± SD; t.w. = this work
[12] = system: SK-MEL-28 (human skin melanoma); parameters: method as in number not printed in Table 2; conditions: 12 h incubation, Xe-lamp 15 min, λ > 570 nm, 11.2 J/cm^2; mean ± SD; determined previously under the same conditions at the same workplace and published; ref number not given; cited from earlier work
[13] = Fluorescence lifetime in DMF; assay type: physicochemical
From the text: 1 Photophysical Data of Investigated Derivatives in DMF ^a | column: τF1/ns; τF2/ns

[14] = 12 h incubation, Xe-lamp 15 min, λ > 570 nm, 11.2 J/cm^2, mean ± SD, determined previously under the same conditions at the same workplace and published, read-out: EC50 (nM) HeLa

bovine serum albumin (BSA), sequence (P02769 25-607): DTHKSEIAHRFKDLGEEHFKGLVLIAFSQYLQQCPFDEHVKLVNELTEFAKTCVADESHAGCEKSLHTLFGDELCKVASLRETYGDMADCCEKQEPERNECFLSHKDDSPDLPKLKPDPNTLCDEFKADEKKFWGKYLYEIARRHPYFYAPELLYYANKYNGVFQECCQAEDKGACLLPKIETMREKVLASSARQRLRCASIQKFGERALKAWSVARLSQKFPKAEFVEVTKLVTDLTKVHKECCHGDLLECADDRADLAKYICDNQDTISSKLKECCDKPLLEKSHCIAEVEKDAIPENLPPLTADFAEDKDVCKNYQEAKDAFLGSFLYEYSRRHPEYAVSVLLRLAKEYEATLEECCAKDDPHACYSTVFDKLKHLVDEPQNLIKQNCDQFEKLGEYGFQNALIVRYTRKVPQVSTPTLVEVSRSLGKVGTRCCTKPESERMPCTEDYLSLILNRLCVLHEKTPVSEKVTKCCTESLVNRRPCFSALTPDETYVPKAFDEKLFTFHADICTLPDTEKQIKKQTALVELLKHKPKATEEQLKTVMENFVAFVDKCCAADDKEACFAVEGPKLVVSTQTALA

| Structure (SMILES) | ε, extinction coefficient [1] | λA, absorption maximum in the Q-band [1] [nm] | λF, fluorescence emission maximum [1] [nm] | ΦF, fluorescence quantum yield of nonionized analogue [2] | ΦF, fluorescence quantum yield [3] | EC50 ([4]; same irradiation conditions, previously published per Table 2, read-out: EC50 (HeLa)) [nM] | aggregation / monomeric state [5] | EC50 [6] [nM] | ΦΔ, quantum yield of singlet oxygen production of nonionized analogue [7] | Log P [8] | Interaction with BSA: disaggregation/monomerization and changes in absorption and fluorescence emission spectra [9] | quenching of excited states upon BSA addition (decrease in Q-band maximum and fluorescence intensity) [9] | ΦΔ, quantum yield of singlet oxygen production [10] | EC50 [4, 14] [nM] | EC50 [11] [nM] | EC50 [12] [nM] | τF1, fluorescence lifetime (relative amplitude in brackets) [13] [ns] |
| --- | --- | --- | --- | --- | --- | --- | --- | --- | --- | --- | --- | --- | --- | --- | --- | --- | --- |
| O=C([O-])c1cc(C(=O)[O-])cc(-c2cc3c(cc2-c2cc(C(=O)[O-])cc(C(=O)[O-])c2)C2=Nc4c5cc(-c6cc(C(=O)[O-])cc(C(=O)[O-])c6)c(-c6cc(C(=O)[O-])cc(C(=O)[O-])c6)cc5c5[n]4[Zn][n]4c(c6cc(-c7cc(C(=O)[O-])cc(C(=O)[O-])c7)c(-c7cc(C(=O)[O-])cc(C(=O)[O-])c7)cc6c4=NC4=NC(=N5)c5cc(-c6cc(C(=O)[O-])cc(C(=O)[O-])c6)c(-c6cc(C(=O)[O-])cc(C(=O)[O-])c6)cc54)=NC3=N2)c1.[Na+].[Na+].[Na+].[Na+].[Na+].[Na+].[Na+].[Na+].[Na+].[Na+].[Na+].[Na+].[Na+].[Na+].[Na+].[Na+] [A4Zn] | 168 630 M^–1cm^–1 | 694 | 708 | 0.12 | 0.01 | 10300 | monomeric in water | 5090 ± 1240 | 0.45 (0.45) ^b | –3.32 | slight bathochromic shift in the Q-band accompanied by partial quenching of the excited states | negligible | – | – | – | – | – |
| O=C(O)c1cc(Oc2cc3c(cc2Oc2cc(C(=O)O)cc(C(=O)O)c2)C2=Nc4c5cc(Oc6cc(C(=O)O)cc(C(=O)O)c6)c(Oc6cc(C(=O)O)cc(C(=O)O)c6)cc5c5[n]4[Zn][n]4c(c6cc(Oc7cc(C(=O)O)cc(C(=O)O)c7)c(Oc7cc(C(=O)O)cc(C(=O)O)c7)cc6c4=NC4=NC(=N5)c5cc(Oc6cc(C(=O)O)cc(C(=O)O)c6)c(Oc6cc(C(=O)O)cc(C(=O)O)c6)cc54)=NC3=N2)cc(C(=O)O)c1 [A3Zn(COOH)] | – | – | – | 0.19 | – | – | – | – | 0.42 | – | – | – | – | – | – | – | – |
| CC[N+](CC)(CC)CCSc1cc2c(cc1SCC[N+](CC)(CC)CC)C1=Nc3c4cc(SCC[N+](CC)(CC)CC)c(SCC[N+](CC)(CC)CC)cc4c4[n]3[Zn][n]3c(c5cc(SCC[N+](CC)(CC)CC)c(SCC[N+](CC)(CC)CC)cc5c3=NC3=NC(=N4)c4cc(SCC[N+](CC)(CC)CC)c(SCC[N+](CC)(CC)CC)cc43)=NC2=N1.[I-].[I-].[I-].[I-].[I-].[I-].[I-].[I-] [C8Zn] | 281 600 M^–1cm^–1 | 704 | 714 | – | 0.29 | – | did not sufficiently suppress aggregation | – | – | –1.59 | – | – | 0.63 | 540 ± 90 | 280 ± 40 | 320 ± 48 | – |
| Cc1cc(Cn2cc[n+](C)c2)c(Oc2c3c(c(C)c(C)[n+]2C)C2=Nc4c5c(Oc6c(Cn7cc[n+](C)c7)cc(C)cc6Cn6cc[n+](C)c6)[n+](C)c(C)c(C)c5c5[n]4[Zn][n]4c(c6c(C)c(C)[n+](C)c(Oc7c(Cn8cc[n+](C)c8)cc(C)cc7Cn7cc[n+](C)c7)c6c4=NC4=NC(=N5)c5c4c(C)c(C)[n+](C)c5Oc4c(Cn5cc[n+](C)c5)cc(C)cc4Cn4cc[n+](C)c4)=NC3=N2)c(Cn2cc[n+](C)c2)c1.[I-].[I-].[I-].[I-].[I-].[I-].[I-].[I-].[I-].[I-].[I-].[I-] [C11Zn] | 160 750 M^–1cm^–1 | 716 | 726 | – | 0.21 | – | full monomerization | 2.8 ± 0.1 | – | –2.25 | – | – | 0.53 | 3.8 ± 0.2 | – | 3.8 ± 0.6 | 1.41 |
| CC[N+](CC)(CC)CCSc1ccc(SCC[N+](CC)(CC)CC)c2c1C1=NC2=Nc2c3c(SCC[N+](CC)(CC)CC)ccc(SCC[N+](CC)(CC)CC)c3c3[n]2[Zn][n]2c(c4c(SCC[N+](CC)(CC)CC)ccc(SCC[N+](CC)(CC)CC)c4c2=NC2=NC(=N3)c3c(SCC[N+](CC)(CC)CC)ccc(SCC[N+](CC)(CC)CC)c32)=N1.[I-].[I-].[I-].[I-].[I-].[I-].[I-].[I-] [C9Zn] | 134 170 M^–1cm^–1 | 757 | 783 | – | 0.06 | – | did not sufficiently suppress aggregation | – | – | –1.65 | – | – | 0.64 | 310 ± 121 | 210 ± 10 | 220 ± 21 | – |
| Cc1cc(OCc2cn(CCOCCOCCO)nn2)c(Oc2cc3c(cc2Oc2c(OCc4cn(CCOCCOCCO)nn4)cc(C)cc2OCc2cn(CCOCCOCCO)nn2)C2=Nc4c5ccccc5c5[n]4[Zn][n]4c(c6ccccc6c4=NC3=N2)=NC2=NC(=N5)c3ccccc32)c(OCc2cn(CCOCCOCCO)nn2)c1 [N3Zn] | 280 340 M^–1cm^–1 | 672 | 681 | – | 0.28 | – | – | 1500 ± 300 | – | 1.90 | – | – | 0.48 | 2200 ± 160 | – | 900 ± 200 | – |
| O=C(O)c1cc(C(=O)O)cc(-c2cc3c(cc2-c2cc(C(=O)O)cc(C(=O)O)c2)C2=Nc4c5cc(-c6cc(C(=O)O)cc(C(=O)O)c6)c(-c6cc(C(=O)O)cc(C(=O)O)c6)cc5c5[n]4[Zn][n]4c(c6cc(-c7cc(C(=O)O)cc(C(=O)O)c7)c(-c7cc(C(=O)O)cc(C(=O)O)c7)cc6c4=NC4=NC(=N5)c5cc(-c6cc(C(=O)O)cc(C(=O)O)c6)c(-c6cc(C(=O)O)cc(C(=O)O)c6)cc54)=NC3=N2)c1 [A4Zn(COOH)] | – | – | – | 0.12 | – | – | – | – | 0.45 | – | – | – | – | – | – | – | – |
| Cc1cc(OCc2cn(CCO[C@@H]3O[C@H](CO)[C@@H](O)[C@H](O)[C@H]3O)nn2)c(Oc2cc3c(cc2Oc2c(OCc4cn(CCO[C@@H]5O[C@H](CO)[C@@H](O)[C@H](O)[C@H]5O)nn4)cc(C)cc2OCc2cn(CCO[C@@H]4O[C@H](CO)[C@@H](O)[C@H](O)[C@H]4O)nn2)C2=Nc4c5ccccc5c5[n]4[Zn][n]4c(c6ccccc6c4=NC3=N2)=NC2=NC(=N5)c3ccccc32)c(OCc2cn(CCO[C@@H]3O[C@H](CO)[C@@H](O)[C@H](O)[C@H]3O)nn2)c1 [N4Zn] | 293 750 M^–1cm^–1 | 672 | 681 | – | 0.29 | – | – | 1200 ± 100 | – | –0.65 | – | – | 0.59 | 2070 ± 60 | – | 500 ± 100 | – |
| O=C([O-])c1cc(Oc2cc3c(cc2Oc2cc(C(=O)[O-])cc(C(=O)[O-])c2)C2=Nc4c5cc(Oc6cc(C(=O)[O-])cc(C(=O)[O-])c6)c(Oc6cc(C(=O)[O-])cc(C(=O)[O-])c6)cc5c5[n]4[Zn][n]4c(c6cc(Oc7cc(C(=O)[O-])cc(C(=O)[O-])c7)c(Oc7cc(C(=O)[O-])cc(C(=O)[O-])c7)cc6c4=NC4=NC(=N5)c5cc(Oc6cc(C(=O)[O-])cc(C(=O)[O-])c6)c(Oc6cc(C(=O)[O-])cc(C(=O)[O-])c6)cc54)=NC3=N2)cc(C(=O)[O-])c1.[Na+].[Na+].[Na+].[Na+].[Na+].[Na+].[Na+].[Na+].[Na+].[Na+].[Na+].[Na+].[Na+].[Na+].[Na+].[Na+] [A3Zn] | 172 640 M^–1cm^–1 | 677 | 688 | 0.19 | 0.03 | – | – | 3470 ± 670 | 0.42 | –2.88 | slight bathochromic shift in the Q-band accompanied by partial quenching of the excited states | negligible | 0.24 | 5160 ± 1030 | – | – | – |
